From patent US20170119899A1, “COMPOSITIONS AND METHODS FOR TREATMENT OF PEROXISOMAL DISORDERS AND LEUKODYSTROPHIES” (The Johns Hopkins University, priority 2015, published 2017)
Blank lines part the entries; values can stand above or below the compound they belong to.

Key:
[1] = mouse, in vivo; cited from earlier work
[2] = in vivo; cited from earlier work
[3] = in vivo; cited from earlier work; remark: listed apart in the source
[4] = system: primary fibroblasts from male patients with cerebral ALD or AMN; assay: LysoPC C26/C22 ratio in ALD/AMN patient-derived fibroblasts; assay type: cell-based, human; conditions: 100 μM free 4PBA
Procedure: Primary fibroblasts from male patients with either cerebral adrenoleukodystrophy (ALD) or adrenomyeloneuropathy (AMN) phenotype were thawed and plated in wells to grow for 4 days. On the 4th day cells were treated with various doses of Dendrimer-4phenylbutyrate (D4PBA) or free 4PBA and maintained in the culture, the treatment was refreshed on Day 7. Cells were harvested for analysis on Day 11. The C26:0, C22:0, and C20:0 very long chain fatty acid fraction of lysophosphatidyl choline (LysoPC) was measured in the harvested cells and the Lyso PC C26/C22 fraction was then calculated as a measure of impaired peroxisomal beta-oxidation.

[5] = system: cells from X-ALD patients and X-ALD knockout mice; conditions: cited from earlier work
Solubility and stability = assay type: physicochemical
TNF-alpha = assay: VLCFA-induced TNF-alpha in patient-derived macrophages treated with D4PBA; assay type: cell-based, human; conditions: 300 micromolar; controls, cerebral ALD and AMN patients
Procedure: In a further experiment, peripheral blood mononucleocytes were derived from a cerebral ALD patient, two AMN and one control subject differentiated in culture using same protocol as above for D-NAC therapy. On day 3, cells were treated with various doses of D4-PBA, and then again on day 5, and day 7. On day 7, macrophages were again stimulated with very long chain fatty acids (VLCFA) as in the D-NAC macrophage study mentioned above. Cells were then harvested at 6 h after stimulation.

[6] = three boys, 140 mg/kg/day i.v. then 70 mg/kg four times daily orally; cited from earlier work
X-ALD mice = conditions: mouse, in vivo; cited from earlier work

Structure (SMILES): C[C@@H]1C[C@H]2[C@@H]3CCC4=CC(=O)C=C[C@]4(C)C3=CC[C@]2(C)[C@@]1(O)C(=O)CO [VBP15]
Muscular dystrophy [1]: improves muscular dystrophy without side effects

Structure (SMILES): Cc1cc(OCC(=O)O)cc(C)c1Cc1ccc(O)c(C(C)C)c1 [sobetirome]
Plasma LDL cholesterol and triglycerides in humans [2]: lowers plasma LDL cholesterol and reduces plasma triglycerides
Serum lipids and cholesterol in animal models [3]: reduced serum lipids, decreased cholesterol levels

Water solubility (Solubility and stability): water insoluble
Structure (SMILES): O=C(O)CCCc1ccccc1 [Free 4PBA, 4-phenyl butyric acid]
LysoPC C26/C22 ratio, free drug [4]: no effect
Very-long-chain fatty acid levels and beta-oxidation [5]: decreased levels of and increased beta-oxidation of very-long-chain fatty acids
VLCFA-induced TNF-alpha response, free drug (TNF-alpha): reduced the VLCFA-induced TNF-alpha response

Water solubility (Solubility and stability): water insoluble
Structure (SMILES): CC(C)(Oc1ccc(CCNC(=O)c2ccc(Cl)cc2)cc1)C(=O)O [Bezafibrate]

Structure (SMILES): CC(=O)N[C@@H](CS)C(=O)O [NAC, N-acetyl-L-cysteine]
MRI progression in advanced ccALD [6]: slowing of MRI progression and reversal of gadolinium-contrast enhancement on MRI

Structure (SMILES): Oc1ccc(C=Cc2cc(O)cc(O)c2)cc1 [Resveratrol]
Redox homeostasis, mitochondrial respiration, axonal degeneration, locomotor disabilities (X-ALD mice): normalize redox homeostasis, mitochondrial respiration, bioenergetic failure, axonal degeneration and associated locomotor disabilities in the X-ALD mice
